Patent US9725415B2, “Process for the preparation of 5-fluoro-1H-pyrazoles” (BAYER CROPSCIENCE AKTIENGESELLSCHAFT, priority 2013, dated 2017)

test: log P determination by HPLC on a phase inversion column (C18), EEC Directive 79/831 Annex V.A8; assay type: physicochemical; details: HPLC-MS method a): C18 column, gradient 10% to 95% acetonitrile (0.1% formic acid) / water (0.09% formic acid), oven 55° C.

Going from `Cn1nc(C(F)(F)C(F)(F)F)c(C(F)(F)F)c1-n1cc(-c2ccc(Cl)c(C(=O)NC3(C#N)CC3)c2)cn1` [Compound (IIIa), 2-Chloro-N-1-cyano-cyclopropyl-5-[2′-methyl-5′-(pentafluoroethyl)-4′-(trifluoromethyl)-2′H-1,3′-bipyrazol-4-yl]benzamide] to `Cn1nc(C(F)(F)C(F)(F)F)c(C(F)(F)F)c1-n1cc(Br)cn1` [Intermediate (12), 4-bromo-2′-methyl-5′-(pentafluoroethyl)-4′-(trifluoromethyl)-2′H-1,3′-bipyrazole], the chromatographic logP rises from 3.72 to 4.14.

With `Cn1nc(C(F)(F)C(F)(F)F)c(C(F)(F)F)c1C(=O)Nc1ccc(Cl)c(C(=O)NCc2ccccc2)c1` [Compound (IIa), N-[4-chloro-3-(benzylcarbamoyl)phenyl]-1-methyl-3-(pentafluoroethyl)-4-(trifluoromethyl)-1H-pyrazole-5-carboxamide] the chromatographic logP was 3.9.
